{"source": "patent US20160067232A1", "about": "“METHODS FOR TREATING A STROKE-RELATED SENSORIMOTOR IMPAIRMENT USING AMINOPYRIDINES” (Acorda Therapeutics, Inc., priority 2011, published 2016)", "key": {"[1]": {"system": "rats with middle cerebral artery occlusion (MCAO)", "assay": "Hindlimb placing test, MCAO rats, double crossover study (Example 2)", "format": "in vivo, Sprague Dawley rat", "design": "Hindlimb Placing Total Score, individual animals / Hindlimb Placing Total Score, Mean: scale not given here", "details": "for Hindlimb Placing Total Score, individual animals: one value per rat; for Hindlimb Placing Total Score, Mean: N 15", "experimental": "4-AP was evaluated for its ability to promote functional sensorimotor improvement following ischemic stroke in rats with stable motor deficits at times remote from their ischemic events. The animal model mimics the conditions in human ischemic stroke and is produced by middle cerebral artery occlusion (MCAO), which results in extensive infarction in cerebral cortex and striatum, including the cortical spinal tract (white matter).\nIn particular, the MCAO model in Sprague Dawley rats that was utilized in the experiments presented below mimics the conditions in human ischemic stroke. In this model, focal cerebral infarcts were made by permanent occlusion of the proximal right middle cerebral artery (MCA) using a modification of the method of Tamura et al. (No To Shinkei 1986; 38:747-51). Briefly, the temporalis muscle was bisected and reflected through an incision made midway between the eye and the ear canal. The proximal MCA was exposed through a subtemporal craniectomy without removing the zygomatic arch and without transecting the facial nerve.\nDosing and Treatment: Rats were treated in accordance with the dosing schedule shown in Tables 2A, 2B, 3 and FIG. 2, with each Phase being a two week period of time. A solution of 4-AP was used in this experiment. Dosing was started at 4 weeks after ischemic event. 4-aminopyridine was dissolved in water for injection (WFI, Cellgro) and sterile filtered. Final concentrations of 0.315 mg/mL or 1.0 mg/mL of 4-aminopyridine were delivered at 2 mL/kg by gastric gavage, resulting in final doses of 0.63 mg/kg and 2 mg/kg respectively. Vehicle control treatment was WFI delivered at 2 mL/kg by gastric gavage. This study was divided into three treatment phases (1-3) with each randomized cohort of animals receiving a different dose level during each of the treatment phases. Starting on day 30 after MCAO (Day 30, start of phase 1), the animals received gavage dosing of solutions (2 mL/kg) approximately 12 hours apart, for a total of five doses. The same schedule was repeated with different treatment on Day 44 and Day 58 for phase 2 and 3 of the study, respectively. Animals were not treated during the 10 days between phases (washout period).\nTreatment groups: Dosing was started 4 weeks after MCAO surgery. During these 4 weeks, weekly behavioral assessments, as defined below, were performed. Two dose levels of 4-AP plus vehicle control were assessed, with treatment starting at 4 weeks after ischemic event. All dosing was via gastric gavage, volume not to exceed 2 mL/kg. Animals were given the first dose and behavioral assessments were performed starting 60 minutes after dosing. Animals then received the second dose that day at the appropriate time and b.i.d (preferably every 12 hours) thereafter for 2 more days (3 total days of dosing, 5 total doses). One hour after the 5th dose, animals were subjected to behavioral assessments as defined below. Following the final behavioral assessment, drug was withdrawn for 10 or 11 days, behavior was re-assessed, and then animals were re-challenged with a cross-over treatment (Phase 2 of Table 2B) as described in Tables 2A, 2B and 3, followed by the same behavioral testing and dosing regimen. This cross-over was repeated one more time as well (Phase 3 of Table 2B) (see FIG. 2).\nBehavioral test details: Behavioral evaluations were done by evaluators blinded to treatment assignment. Blinded assessments of sensorimotor function were performed just prior to MCAO surgery, 24 hours after MCAO surgery and weekly thereafter until the first phase of dosing using limb placing and body swing behavioral tests. As described above, behavioral assessments were timed exactly with dosing times. Animals were tested one hour after the 1st and 5th doses of each phase (i.e., Days 30 and 32 of the first phase, Days 44 and 46 of the second phase; and Days 58 and 60 of the third phase); animals were also tested during the washout periods on Days 42 and 56. […]"}, "[2]": {"system": "rats with middle cerebral artery occlusion (MCAO)", "assay": "Cylinder test, total movement, MCAO rats (Example 2)", "format": "in vivo, Sprague Dawley rat", "details": "individual animals and Mean (N=15), listed as 4-AP", "experimental": "Dosing and Treatment: Rats were treated in accordance with the dosing schedule shown in Tables 2A, 2B, 3 and FIG. 2, with each Phase being a two week period of time. A solution of 4-AP was used in this experiment. Dosing was started at 4 weeks after ischemic event. 4-aminopyridine was dissolved in water for injection (WFI, Cellgro) and sterile filtered. […] Vehicle control treatment was WFI delivered at 2 mL/kg by gastric gavage. […] Starting on day 30 after MCAO (Day 30, start of phase 1), the animals received gavage dosing of solutions (2 mL/kg) approximately 12 hours apart, for a total of five doses. The same schedule was repeated with different treatment on Day 44 and Day 58 for phase 2 and 3 of the study, respectively. Animals were not treated during the 10 days between phases (washout period). Treatment groups: Dosing was started 4 weeks after MCAO surgery. During these 4 weeks, weekly behavioral assessments, as defined below, were performed. Two dose levels of 4-AP plus vehicle control were assessed, with treatment starting at 4 weeks after ischemic event. […] Animals were given the first dose and behavioral assessments were performed starting 60 minutes after dosing. Animals then received the second dose that day at the appropriate time and b.i.d (preferably every 12 hours) thereafter for 2 more days (3 total days of dosing, 5 total doses). One hour after the 5th dose, animals were subjected to behavioral assessments as defined below. Following the final behavioral assessment, drug was withdrawn for 10 or 11 days, behavior was re-assessed, and then animals were re-challenged with a cross-over treatment (Phase 2 of Table 2B) as described in Tables 2A, 2B and 3, followed by the same behavioral testing and dosing regimen. This cross-over was repeated one more time as well (Phase 3 of Table 2B) (see FIG. 2). Cylinder Test: Evaluation was performed at Day −1 (pre-operation), Day 7, Day 21, Day 30, Day 32, Day 44, Day 46, Day 58, Day 60. This test assessed limb use asymmetry. Rats were placed in a transparent cylinder (20 cm in diameter and 30 cm in height) for 3-6 minutes. A mirror was placed behind the cylinder to determine forelimb movements when animal was turned away from the camera. […] Simultaneous use of both left and right forelimbs while contacting the wall during a full rear was also scored. A total number of 20 forelimb placings were counted during a trial. Data was expressed in terms of percent use of the non-impaired and or impaired forelimb relative to the total number of limb use observations for wall movements."}, "[3]": {"system": "potassium channels", "details": "cited from earlier work"}, "[4]": {"details": "Group 3 (sequence vhl), D44 after MCAO, phase 2, high dose"}, "[5]": {"details": "Group 3 (sequence vhl), D46 after MCAO, phase 2, high dose"}, "[6]": {"details": "Group 3 (sequence vhl), D58 after MCAO, phase 3, low dose"}, "[7]": {"details": "Group 3 (sequence vhl), D60 after MCAO, phase 3, low dose"}}, "note": "“And” between values parts separate entries of the source, which are not always exact repeats. Identical values can stand only once. Like-named read-outs stand apart in the source and are kept apart here.", "data": [{"molecule": "Nc1ccncc1", "note": "[4-aminopyridine]", "values": [{"measurement": "Hindlimb function, low dose compared to vehicle", "setting": "[1]; 0.63 mg/kg b.i.d. p.o., first mixed model, p=0.0027", "result": "significantly improved the hindlimb function"}, {"measurement": "Hindlimb function, high dose compared to vehicle", "setting": "[1]; 2 mg/kg b.i.d. p.o., first mixed model, p<0.0001", "result": "significantly improved the hindlimb function"}, {"measurement": "Hindlimb Placing Total Score, individual animals", "setting": "[1]; Group 2 (sequence lvh), D30 after MCAO, phase 1, low dose", "result": "2.50 and 1.50 (6×) and 2.00 (5×) and 1.00 and 0.50 and 3.00"}, {"measurement": "Hindlimb Placing Total Score, individual animals", "setting": "[1]; Group 2 (sequence lvh), D32 after MCAO, phase 1, low dose", "result": "2.00 (2×) and 1.00 (4×) and 1.50 (8×) and 0.50"}, {"measurement": "Hindlimb Placing Total Score, individual animals", "setting": "[1]; Group 2 (sequence lvh), D58 after MCAO, phase 3, high dose", "result": "2.00 (2×) and 0.00 (5×) and 1.00 and 1.50 (4×) and 0.50 (3×)"}, {"measurement": "Hindlimb Placing Total Score, individual animals", "setting": "[1]; Group 2 (sequence lvh), D60 after MCAO, phase 3, high dose", "result": "0.50 (5×) and 0.00 (9×) and 1.00"}, {"measurement": "Hindlimb Placing Total Score, Mean", "setting": "[1]; [4]", "result": 0.90}, {"measurement": "Hindlimb Placing Total Score, individual animals", "setting": "[1]; [4]", "result": "2.00 (2×) and 0.00 (3×) and 1.50 and 1.00 (2×) and 0.50 (2×)"}, {"measurement": "Hindlimb Placing Total Score, Mean", "setting": "[1]; [5]", "result": 0.30}, {"measurement": "Hindlimb Placing Total Score, individual animals", "setting": "[1]; [5]", "result": "1.00 and 0.00 (6×) and 0.50 (3×)"}, {"measurement": "Hindlimb Placing Total Score, Mean", "setting": "[1]; [6]", "result": 0.80}, {"measurement": "Hindlimb Placing Total Score, individual animals", "setting": "[1]; [6]", "result": "1.50 and 0.50 (3×) and 1.00 (3×) and 3.00 and 0.00 (2×)"}, {"measurement": "Hindlimb Placing Total Score, Mean", "setting": "[1]; [7]", "result": 0.70}, {"measurement": "Hindlimb Placing Total Score, individual animals", "setting": "[1]; [7]", "result": "1.50 and 1.00 (3×) and 0.50 (2×) and 2.00 and 0.00 (3×)"}, {"measurement": "Effect on hindlimb function (FIGS. 4A-D)", "setting": "[1]; low or high dose, 4 weeks post ischemic brain injury, dose responsive, reversible", "result": "effective to improve hindlimb function"}, {"measurement": "Cylinder Test (Total Movement) Group 1, D30", "setting": "[2]; Group 1, D30, treatment phase 1 (high-dose 4-AP)", "result": "0.00 (5×) and 75.00 and 2.00 and 10.00 (2×) and 6.00 and 13.00 and 12.00 and 4.00 and 5.00 (2×)"}, {"measurement": "Cylinder Test (Total Movement) Group 1, D32", "setting": "[2]; Group 1, D32, treatment phase 1 (high-dose 4-AP)", "result": "11.00 and 54.00 and 22.00 and 39.00 and 10.00 and 8.00 and 14.00 and 15.00 and 0.00 (2×) and 38.00 and 2.00 and 1.00 and 6.00 and 23.00"}, {"measurement": "Cylinder Test (Total Movement) Group 1, D44", "setting": "[2]; Group 1, D44, treatment phase 2 (low-dose 4-AP)", "result": "28.00 and 93.00 and 48.00 and 57.00 and 47.00 and 9.00 and 11.00 and 5.00 and 66.00 and 25.00 and 6.00 and 43.00 and 20.00 and 7.00"}, {"measurement": "Cylinder Test (Total Movement) Group 1, D46", "setting": "[2]; Group 1, D46, treatment phase 2 (low-dose 4-AP)", "result": "11.00 and 47.00 and 43.00 and 48.00 and 46.00 and 12.00 and 63.00 and 4.00 and 0.00 (2×) and 13.00 and 2.00 and 6.00 and 39.00 and 24.00"}, {"measurement": "potassium channel blocking activity", "setting": "[3]; at high concentration (millimolar concentrations)", "result": "broad-spectrum blocker of potassium channels"}, {"measurement": "potassium channel blocking activity", "setting": "[3]; at plasma concentrations obtained in clinical studies (<1 microM)", "result": "selective for certain types of these channels"}]}]}
